# Patent US20250154089A1, “METHODS FOR PREPARING OXYRESVERATROL AND DERIVATIVES THEREOF” (Caliway Biopharmaceuticals Co., Ltd., priority 2023, published 2025)
# System: melanin production induced by α-MSH
# Test: Inhibition of melanin production induced by α-MSH
# Type: cell-based
# Conditions: for Melanin content (%), Mean: α-MSH 0.1 μM 24 hours + TA treat 24 hours, 0.2% DMSO, α-MSH group = 100.0
# Text: This example explores the bioactivity of the synthesized oxyresveratrol compound in inhibiting melanin production as relative to commercial oxyresveratrol extracted from plant sources.
Structure (SMILES),Inhibition of melanin production induced by α-MSH (in words) (32 and 128 μM),"Melanin content (%), Mean (TA conc. 32 μM)","Melanin content (%), Mean (TA conc. 128 μM)","Inhibitory activity on melanin production compared with the commercial material (in words) (e.g., at 128 μM)"
"Oc1cc(O)cc(/C=C/c2ccc(O)cc2O)c1 [Commercial, oxyresveratrol]",inhibited melanin production,77.4%,45.5%,–
"Oc1cc(O)cc(/C=C/c2ccc(O)cc2O)c1 [Synthetic, oxyresveratrol]",–,75.7%,38.5%,greater inhibitory activity
